Common to all, as to type: cell-based
One data set deals with RAW cells. The data set is described as follows: RAW cell viability by Trypan blue exclusion. The conditions noted are these: up to 50 μg peptide.
Another data set concerns S. aureus. The conditions noted are these: fragments of CEMA. As to the method:
(§1) The minimum inhibitory concentrations (MIC) of CEME, CEMA and melittin were determined for a number of different bacteria (Table 2). Briefly, cells were grown overnight at 37° C. in LB-S (Luria broth without any salt supplement) and diluted one in 10,000 in the same medium to give concentrations of about 10^4 to 10^5 CFU/ml. The broth dilutions were set up in a 96 well microtiter plate by putting 200 μl of LB-S containing the initial concentration of antibiotic or compound in column 1 and 100 μl of the same medium in columns 2-12. The compounds were diluted by taking 100 μl of broth from column 1 and mixing it with column 2, resulting in a one in two dilution. This was continued to column 10. Finally, 10 μl of bacteria were pipetted into columns 1-11, and the plates incubated overnight at 37° C. The next day the plates were scored for growth in the wells, and the MIC determined.

The subject of the next data set is P. aeruginosa. The conditions noted are these: fragments of CEMA. As to the method: as §1
The next data set concerns E. coli. As to the method: as §1
The test system of another data set is Candida albicans. Kind of data set: MIC broth dilution. The settings on record: fragments of CEMA. As to the method:
as §1
Consequently, although CEMA is an effective antimicrobial agent, the individual fragments have no antimicrobial (or anti-fungal) activity.

Data set [1] deals with P. AERUGINOSA H309. Kind of data set: 1-N-phenylnaphthylamine (NPN) uptake assay. The conditions noted are these: 10 μM NPN, fluorescence, FIG. 7. An excerpt:
(§2) The second assay determined membrane permeability by the ability of 1-N-phenylnaphthylamine (NPN), a small fluorescent probe, to insert itself into the membrane. Normally, very little NPN can penetrate the outer membrane, but in the presence of a membrane permeabilizer it can insert into the hydrophobic membrane resulting in an increase in fluorescence (FIGS. 7 and 8). This N-phenylnaphthylamine uptake assay was previously described by Loh, et al., Antimicrobial Agents and Chemo., 26:546, 1984. Cells were prepared exactly the same as for the lysozyme lysis assay. 1-N-phenylnaphthylamine (NPN) was dissolved in acetone at a concentration of 500 μM. NPN fluorescence was measured in a Perkin-Elmer 650-10S fluorescent spectrophotometer using excitation and emission wavelengths set to 350 nm and 420 nm respectively, with slit widths of 5 nm. The assay was standardized by adding 20 μl of NPN (final concentration of 10 μM) and 10 μl of 0.64 mg/ml of polymyxin B (final concentration of 6.4 μg/ml) into 1 ml of cells, and adjusting the resulting fluorescence to read 90% deflection (90 arbitrary units). Various compounds were tested by adding 10 μl of different concentrations to a cuvette containing 1 ml of cells and 10 μM NPN. Permeabilizing activity was designated as the total fluorescence minus the fluorescence due to NPN alone. Following the fluorescence measurement, the OD600 of the cells was taken to ensure no significant cell lysis had occurred.

A further data set deals with E. coli strain DC2. Kind of data set: gel overlay antibacterial activity assay. The settings on record: gel overlaid with ≈10^5 E. coli strain DC2, overnight at 37° C. As to the method: A sample of the partially purified CEME protein was electrophoresed on a 15% acid-urea gel, which separates proteins based on charge and mass (Panyim and Chalkey, Arch. Biochem. Biophys., 130:337, 1969). The pH of the buffer is acidic (=pH 5.0) and the polarity is reversed such that proteins migrate to the cathode. Therefore, the small cationic peptides run relatively quickly through the gel and thus can be easily identified. Antibacterial activity was tested as previously described (Hultmark, Eur. J. Biochem., 106:7, 1980). The gel was incubated in Mueller Hinton broth+0.2M NaPO4 pH 7.4 for 1 hr. It was overlaid with 5 mls of the same media containing 0.6% agar and ≈10^5 E. coli strain DC2, and then again with 5 ml of the same media containing only 0.6% agar. […] Melittin is used as a positive control due to its antibacterial activity and similarity in size and PI values.

For data set [2], the system named is P. AERUGINOSA H309. The data set is described as follows: lysozyme lysis assay (membrane permeabilization). The settings on record: 50 μg/ml lysozyme, decrease in OD600, FIG. 5. Here is the method: Membrane permeabilization by polycationic compounds was measured in two different assays. The first assay measured membrane disruption by the ability of lysozyme to reach the periplasm and cause cell lysis. […] The uptake of lysozyme into whole cells due to membrane permeabilization by various compounds was previously described in Hancock, et al., Antimicrobial Agents and Chemo., 19:777, 1981. Overnight cultures of P. aeruginosa H309 or E. cloacae 218R1 grown in LB-S were diluted 1 in 50 in fresh medium and grown to an OD600 =0.5-0.6. The cells were harvested in a Silencer H-103N clinical centrifuge at 1800 g for 10 min, washed once with one volume of assay buffer (5 mM HEPES pH 7.2, 5 mM KCN), and resuspended in the same buffer to an OD600 of 0.5. Assays consisted of 600 μl of cells with 50 μg/ml of chicken egg white lysozyme and varying concentrations of cationic compounds. Cell lysis was measured as a decrease in the OD600 in a Perkin-Elmer dual beam spectrophotometer. Parallel experiments performed without lysozyme enabled the measurement of the lytic activity of the compounds themselves. To test whether or not permeability to lysozyme could be inhibited by divalent cations, various concentrations of MgCl2 were added to the assay after the addition of lysozyme and before the addition of the test compound.

In another data set the test system is E. cloacae. The conditions noted are these: strain 218R1, β-lactam resistant. Here is the method:
as §1

In another data set the test system is S. typhimurium. As to the method: as §1
A further data set relates to E. cloacae 218R1. The data set is described as follows: 1-N-phenylnaphthylamine (NPN) uptake assay. The conditions noted are these: 10 μM NPN, fluorescence, FIG. 8.
Excerpt: as §2

Where [3] appears, read: strain C590, Defensin sensitive.
Where [4] appears, read: strain DC2, Polymyxin sensitive.
Where [5] appears, read: strain SC9251, Parent of SC9252.
[6] abbreviates: strain SC9252, Polymyxin resistant.

Like-named read-outs stand apart in the source and are kept apart here.

Take `CC[C@H](C)[C@H](NC(=O)CNC(=O)[C@@H](NC(=O)[C@H](CCCCN)NC(=O)[C@H](CCCCN)NC(=O)[C@H](Cc1ccccc1)NC(=O)[C@H](CC(C)C)NC(=O)[C@H](CCCCN)NC(=O)[C@H](Cc1c[nH]c2ccccc12)NC(=O)[C@@H](N)CCCCN)[C@@H](C)CC)C(=O)NCC(=O)N[C@@H](C)C(=O)N[C@H](C(=O)N[C@@H](CC(C)C)C(=O)N[C@@H](CCCCN)C(=O)N[C@H](C(=O)N[C@@H](CC(C)C)C(=O)N[C@H](C(=O)N[C@H](C(=O)NCC(=O)N[C@@H](CC(C)C)C(=O)N1CCC[C@H]1C(=O)N[C@@H](C)C(=O)N[C@@H](CC(C)C)C(=O)N[C@@H](CCCCN)C(=O)N[C@@H](CC(C)C)C(=O)N[C@H](C(=O)N[C@@H](CCCCN)C(=O)O)[C@@H](C)O)[C@@H](C)O)[C@@H](C)O)C(C)C)C(C)C` [CEMA]: the RAW cell viability result in the data set on RAW cells is reported as “no apparent decrease”.
Take `CC[C@H](C)[C@H](NC(=O)CN)C(=O)NCC(=O)N[C@@H](C)C(=O)N[C@H](C(=O)N[C@@H](CC(C)C)C(=O)N[C@@H](CCCCN)C(=O)N[C@H](C(=O)N[C@@H](CC(C)C)C(=O)N[C@H](C(=O)N[C@H](C(=O)NCC(=O)N[C@@H](CC(C)C)C(=O)N1CCC[C@H]1C(=O)N[C@@H](C)C(=O)N[C@@H](CC(C)C)C(=O)N[C@@H](CCCCN)C(=O)N[C@@H](CC(C)C)C(=O)N[C@H](C(=O)N[C@@H](CCCCN)C(=O)O)[C@@H](C)O)[C@@H](C)O)[C@@H](C)O)C(C)C)C(C)C` [MA]: the MIC result in the data set with S. aureus is listed as “greater than 64 ug/ml”; against P. aeruginosa it was “greater than 64 ug/ml”; with E. coli (E. coli, fragments of CEMA), “greater than 64 ug/ml”; with Candida albicans, “greater than 64 ug/ml”.
Consider `CC[C@H](C)[C@H](NC(=O)CN)C(=O)NCC(=O)N[C@@H](C)C(=O)N[C@H](C(=O)N[C@@H](CC(C)C)C(=O)N[C@@H](CCCCN)C(=O)N[C@H](C(=O)N[C@@H](CC(C)C)C(=O)N[C@H](C(=O)N[C@H](C(=O)NCC(=O)N[C@@H](CC(C)C)C(=O)N1CCC[C@H]1C(=O)N[C@@H](C)C(=O)N[C@@H](CC(C)C)C(=O)N[C@H](C(=O)N[C@@H](CO)C(=O)N[C@@H](Cc1c[nH]c2ccccc12)C(=O)N[C@H](C(=O)N[C@@H](CCCCN)C(=O)N[C@@H](CCCNC(=N)N)C(=O)N[C@@H](CCCCN)C(=O)N[C@@H](CCCNC(=N)N)C(=O)N[C@@H](CCC(N)=O)C(=O)N[C@@H](CCC(N)=O)C(N)=O)[C@@H](C)CC)[C@@H](C)CC)[C@@H](C)O)[C@@H](C)O)C(C)C)C(C)C` [MEL, melittin], for which the “opening up the membrane to NPN” value in the data set with P. AERUGINOSA H309 [1] was “less active”. Besides, the “zones of clearing on overlaid acid-urea gel” value with E. coli strain DC2 is given as “zones of clearing”. Also, in the data set on P. AERUGINOSA H309 [2], the “permeabilization of outer membrane to lysozyme” value was “did not appear to be a good permeabilizer as compared to the other peptides”.
As for gentamicin [GM], the MIC amounted to 0.5 µg/mL against E. cloacae; 4 µg/mL in the data set on S. typhimurium (strain C587, Parent of C590); 2 µg/mL against S. typhimurium (setting [3]); 0.5 µg/mL in the data set with E. coli (setting [4]); 2 µg/mL in the data set on E. coli (setting [5]); 4 µg/mL in the data set on E. coli (setting [6]).
polymyxin B [PX]: the MIC in the data set on E. cloacae amounted to 0.5 µg/mL; in the data set on S. typhimurium (strain C587, Parent of C590), 1 µg/mL; in the data set on S. typhimurium (setting [3]) it was 0.25 µg/mL; in the data set on E. coli (setting [4]), 0.06 µg/mL; with E. coli (setting [5]) it was 0.06 µg/mL; in the data set on E. coli (setting [6]) it was 4 µg/mL. Further, the “opening up the membrane to NPN” value with E. cloacae 218R1 and in the data set on P. AERUGINOSA H309 [1] was “equally active” throughout.

(Values after patent US5789377A (priority 1995, dated 1998).)
